This passage reports IC50 results from PMC3225262, “PeptX: Using Genetic Algorithms to optimize peptides for MHC binding” (BMC Bioinformatics, 2011).

Where no end group is shown, it is not given here.

The target in this test is HLA-A*02:01 (Homo sapiens, UniProt P04439, D140Y/D185E/D98H/E176V/E277Q/G131W/G231S/I119V/I121R/I166T/I218V/L300P/L318F/N151K/N90K/P208A/P217A/Q86G/Q94H/R138H/R169H/T345S). Kind of test: experimental peptide/MHC binding assay of the consensus peptides. Particulars: consensus peptides optimized for HLA-A*02:01; values below 0.5 nM are beyond the range of sensitivity of the assay; tested by co-operation partner (J. Sidney); read-out: experimental peptide/MHC binding affinity expressed as IC50. From the text: Since a validation on the basis of existing public experimental data was not possible we were able to find a co-operation partner who tested our consensus peptides for experimental peptide/MHC binding affinity.
The authors thank J. Sidney for testing the IC50 binding affinities of the consensus peptides.
For FLWEVTPTV [FLWEVTPTV], the IC50 is 1.1 nM.
The figure for MLWTMVFTV [MLWTMVFTV] is < 0.5 nM.
The figure for WWWFFWYVW [WWWFFWYVW] is 45 nM; for YLAEGLASL [YLAEGLASL] it is 1.3 nM.
In the case of YMMEWMWYV [YMMEWMWYV] it was < 0.5 nM.
